For 3 compounds, remaining activity and melting point results are on record in patent US6451781B1, “Substituted acylguanidines, process for their preparation, their use as medicaments or diagnostics, and medicaments comprising them” (Aventis Pharma Deutschland GmbH, priority 1999, dated 2002).

The target in series [1] is T1, human Na+/H+ exchanger (subtype 3; NHE-3) (Homo sapiens, UniProt P48764).
T1 construct: expressed in transfected cells; host or cells: LAP1 cells (NHE-deficient), stably transfected with pMAMneo plasmid
T1 sequence (P48764 26-834): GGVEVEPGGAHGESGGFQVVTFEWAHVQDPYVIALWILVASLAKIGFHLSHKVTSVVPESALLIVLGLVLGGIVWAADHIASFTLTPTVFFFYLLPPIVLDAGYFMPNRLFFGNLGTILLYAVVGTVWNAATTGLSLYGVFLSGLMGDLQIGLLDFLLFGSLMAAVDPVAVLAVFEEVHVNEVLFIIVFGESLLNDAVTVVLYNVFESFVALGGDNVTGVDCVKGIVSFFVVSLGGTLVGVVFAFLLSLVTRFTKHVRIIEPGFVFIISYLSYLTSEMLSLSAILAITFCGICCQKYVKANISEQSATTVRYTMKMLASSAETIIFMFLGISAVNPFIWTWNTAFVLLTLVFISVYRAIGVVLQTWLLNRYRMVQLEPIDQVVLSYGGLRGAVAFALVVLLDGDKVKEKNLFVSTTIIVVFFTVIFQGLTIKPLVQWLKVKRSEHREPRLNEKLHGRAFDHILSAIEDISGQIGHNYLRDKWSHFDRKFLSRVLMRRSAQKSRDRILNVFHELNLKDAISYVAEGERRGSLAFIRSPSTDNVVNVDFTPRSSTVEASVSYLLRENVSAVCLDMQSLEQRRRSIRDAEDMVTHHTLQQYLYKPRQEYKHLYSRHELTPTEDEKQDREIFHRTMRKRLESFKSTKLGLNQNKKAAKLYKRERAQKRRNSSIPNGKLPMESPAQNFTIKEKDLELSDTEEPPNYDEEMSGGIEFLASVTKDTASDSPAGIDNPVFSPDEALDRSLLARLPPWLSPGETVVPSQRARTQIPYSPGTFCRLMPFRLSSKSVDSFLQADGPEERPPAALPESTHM
The series is described as follows: Inhibition of the NHE antiport subtype 3: intracellular pH recovery after acid load (BCECF) in stably transfected LAP1 cells. The format is cell-based. As to conditions: human NHE-3, pH recovery in % of maximum recovery, read-out: Residual activity at 30 μM. The method, then:
The absorption of water from the gall bladder is inhibited by inhibition of the apical NHE antiport of the subtype 3 of the gall bladder epithelium, which results in a dilute bile fluid. This dilute bile fluid prevents gallstone formation and, if gallstones are already present, brings about their dissolution. The inhibition of the NHE antiport of the subtype 3 by the compounds of the formula I according to the invention was determined by means of the following test.
Most of the molecular bilology techniques follow protocols from the works “Current Protocols in Molecular Biology (eds. Ausubel, F. M., Brent, R., Kingston, R. E., Moore, D. D., Seidman, J. G., Smith, J. A. and Struhl, K.; John Wiley & Sons)” and “Molecular Cloning: A Laboratory Manual (Sambrock, J., Fritsch, E. F. und Maniatis, T.; Cold Spring Harbor Laboratory Press (1989))”. […] In this test, the increase in the intracellular pH (pHi) after an acidification was determined which commenced with functional NHE even under bicarbonate-free conditions. For this, the pHi was determined using the pH-sensitive fluorescent dye BCECF (Calbiochem, the precursor BCECF-AM is employed). […] The BCECF fluorescence was determined in a “ratio fluorescence spectrometer” (Photon Technology International, South Brunswick, N.J., USA) at excitation wavelengths of 505 and 440 nm and an emission wavelength of 535 nm and converted into the pHi by means of calibration curves. […]

For `C/C(=C\C(=O)N=C(N)N)c1cc(F)c(Oc2ccc(CC(=O)N[C@H]3CC[C@@]4(C)[C@@H](C3)C[C@@H](O)[C@@H]3[C@@H]4C[C@H](O)[C@]4(C)[C@@H]([C@H](C)CCC(=O)O)CC[C@@H]34)cc2)c(F)c1` (stereo in doubt) [Example 2, 4-[3-(2-{4-[2,6-Difluoro-4-(3-guanidino-1-methyl-3-oxopropenyl)phenoxy]phenyl}acetylamino)-7,12-dihydroxy-10,13-dimethylhexadecahydrocyclopenta[a]phenanthren-17-yl]pentanoic acid], the melting point was 190 °C (dec.). In series [1], the remaining activity at 30 µM was 10%.
For the compound `C/C(=C\c1cc(F)c(Oc2ccc(CC(=O)NCCO[C@H]3CC[C@@]4(C)[C@@H](C3)C[C@@H](O)[C@@H]3[C@@H]4C[C@H](O)[C@]4(C)[C@@H]([C@H](C)CCC(=O)O)CC[C@@H]34)cc2)c(F)c1)C(=O)N=C(N)N` (stereo in doubt) [Example 1, 4-{3-[2-(2-{4-[2,6-Difluoro-4-(3-guanidino-2-methyl-3-oxopropenyl)phenoxy]phenyl}acetylamino)ethoxy]-7,12-dihydroxy-10,13-dimethylhexadecahydro-cyclopenta[a]phenanthren-17-yl}pentanoic acid], the remaining activity at 30 µM in series [1] was determined as 17%.
Still for that read-out and setting: as for `C[C@H](CCC(=O)O)[C@H]1CC[C@H]2[C@@H]3[C@H](O)C[C@@H]4C[C@@H](OCCNC(=O)c5cccc(-c6ccc(C(=O)N=C(N)N)cc6)c5)CC[C@]4(C)[C@H]3C[C@H](O)[C@]12C` (stereo in doubt) [Example 3, 4-(3-{2-[(4′-Guanidinocarbonylbiphenyl-3-carbonyl)amino]ethoxy}-7,12-dihydroxy-10,13-dimethylhexadecahydrocyclopenta[a]phenanthren-17-yl)pentanoic acid], the figure is 65%.

The melting point is the temperature of the solid-liquid transition.
